Measured values from PMC3198786, “LL37 and Cationic Peptides Enhance TLR3 Signaling by Viral Double-stranded RNAs” (PLoS ONE, 2011).

Key:
[1] = tested on: TLR3 signaling; assay: poly(I:C)-induced IL6 production by BEAS2B cells (ELISA); type: cell-based, human; details: for Fold induction above poly(I:C) induced IL6 production (BEAS2B): BEAS2B cells, 0.13 µg/ml poly(I:C) ± peptides (5 µM), IL6 ELISA, number of experiments in parentheses, duplicate or triplicate per experiment
Description: (§1) BEAS2B cells were plated at 1.5×10^4 cells/well in 96-well plates. 24 h after plating, the media was replaced with 50 µl of media containing the indicated treatments. Unless otherwise noted, poly(I:C) and LPS were added to the medium of cells to final concentrations of 0.13 µg/ml and 1 µg/ml, respectively. To activate RIG-I, 10 nM shR9 with a 5′ triphosphate was transfected into cells using Lipofectamine 2000 (Invitrogen, Carlsbad, CA). Supernatants were collected after 18-24 h and assayed for IL6 or IL8 secretion using an ELISA kit according to the manufacturer's protocol (BD Biosciences, San Diego, CA). The IL6 or IL8 level was calculated based on a standard curve fitted using a sigmoidal variable slope dose-response using software from GraphPad Prism (La Jolla, CA) and normalized to […] per well. For PBMCs, an initial 150,000 cells per well were suspended in 100 µl of RPMI medium (Invitrogen) containing 10% FBS and incubated overnight at 37°C, 5% CO2. The cells were treated with poly(I:C) at 5 µg/ml in the absence or presence of LL37 (5.6 µM) for 20–24 h. […] The supernatants were collected and frozen until analysis. Cytokine levels for IP10, IL1α and MCP1 were measured using a Milliplex assay kit (Millipore, Billerica, MA).

[2] = tested on: BEAS2B cells; assay: WST-1 viability of BEAS2B cells; type: cell-based, human
Description: Supplementary file pone.0026632.s002.tif: Figure S2 Effects of LL37 concentration on viability of BEAS2B cells±poly(I:C). Cell viability was assessed using the WST-1 assay (Clontech, Mountain View CA). After treatments, cells were incubated with WST-1 substrate for 4 h and absorbance was measured at 450 nm with 630 nm as reference. The readout performed in the absence of LL37 (i.e. Control) is defined as 100%. […] The graph is representative of five experiments. […] (TIF) Click here for additional data file.

[3] = tested on: human peripheral blood mononuclear cells (PBMCs); assay: Cytokine production in human PBMCs (Milliplex); type: cell-based; details: peptide 5.6 µM
Description: as §1

[4] = Negative-stain electron microscopy of particle dimensions; type: physicochemical; details: negative-stain TEM, pH 7.4, linear regression
Description: Poly(I:C) at 50 µg/ml (low molecular weight, Invitrogen) was incubated alone or with LL37 or Sc37 (each at 10 µM) in Tris-buffered saline, pH 7.4 at 4°C for 15 min. Sample of 10 µl was placed on top of a glow-discharged 400 mesh carbon-coated copper grid (EMS). After one min incubation at RT, the drop was removed by absorption onto filter paper. The grids containing the samples were then stained with 2% uranium acetate for 20 s. Excess stain was removed and the grids were air-dried for 15 min. Micrographs of the grids were taken with JEOL transmission microscope at 80 kV, using 40,000x magnification. The micrographs were collected and measurement of length and width of particles were calculated using EMAN software as described by. Data points for each treatment were fitted using linear regression and the slope of each line was calculated using GraphPad Prism software.

[5] = tested on: TLR3 signaling; assay: Viral RNA-induced IL6 production by BEAS2B cells; type: cell-based, human; details: Sc37 2.2 µM, n>4
Description: Poly(I:C) (Amersham Biosciences or GE Healthcare) was reconstituted in phosphate buffered saline (PBS; Invitrogen, Carlsbad, CA). Size-selected Poly(I:C) of 50–125 bps were generated as described previously. Fluorescently-labeled Cy5-poly(I:C) was made as described in [43]. LPS was from Sigma-Aldrich Inc. DsRNAs from Reovirus were extracted from purified virions (a kind gift from Dr. Danthi, Indiana University). […] The ssRNAs were then adjusted to a 1∶1 molar ratio in PBS and heated to 95°C for five minutes followed by slow cooling to room temperature to allow the strands to anneal to form S4 dsRNA. Plant endornavirus BPEV dsRNA was the kind gift of R. Valverde (Louisana State University, Baton Rouge, LA). Positive-strand ssRNA from hepatitis virus JFH1 was made by in vitro transcription from a cDNA of JFH-1 [63]. Plasmids encoding the wild-type TLR3, TLR4 and RIG-I were from InvivoGen (San Diego, CA). […]
BEAS2B cells were plated at 1.5×10^4 cells/well in 96-well plates. […] The IL6 or IL8 level was calculated based on a standard curve fitted using a sigmoidal variable slope dose-response using software from GraphPad Prism (La Jolla, CA) and normalized to µg/ml per well. […] Cytokine levels for IP10, IL1α and MCP1 were measured using a Milliplex assay kit (Millipore, Billerica, MA).

[6] = tested on: TLR3; assay: TLR3 ISRE luciferase reporter assay in 293T/TLR3 cells; type: cell-based, human; details: for Fold induction above Reovirus dsRNA (293T/TLR3 reporter): 293T/TLR3 cells, reovirus genomic RNA 2 µg/ml, peptides 2 µM, ISRE luciferase reporter
Description: Luciferase reporter assays were performed according to the protocol of [36]. Briefly, HEK 293T cells were plated in white-walled 96-well plates at 4.4×10^4 cells/well and transfected with plasmids pUNO-huTLR3 (0.5 ng/well), pISRE-Luc (30 ng/well) and phRL-TK (5 ng/well) using Lipofectamine 2000. The cells were grown for 24 h to allow expression from the plasmids. […] After 18–24 h of incubation, luciferase activity was determined using the Dual-Glo Luciferase assay system (Promega).

[7] = tested on: TLR4 signaling; assay: LPS-induced IL6 production by BEAS2B cells (ELISA); type: cell-based, human; details: LPS 1 µg/ml, T3/T4 0.6–10 µM, Tat and Arg(9) 10 µM
Description: as §1

O=C(O[C@@H]1Cc2c(O)cc(O)cc2O[C@@H]1c1cc(O)c(O)c(O)c1)c1cc(O)c(O)c(O)c1 [EGCG]
Effect on the Tat peptide's enhancement of IL6 production ([1]; BEAS2B, data not shown): did not affect

CC[C@H](C)[C@H](NC(=O)[C@H](CCCCN)NC(=O)[C@H](CCC(=O)O)NC(=O)[C@H](CCCCN)NC(=O)[C@H](CO)NC(=O)[C@H](CCCCN)NC(=O)[C@H](CCCNC(=N)N)NC(=O)[C@H](Cc1ccccc1)NC(=O)[C@H](Cc1ccccc1)NC(=O)[C@H](CC(=O)O)NC(=O)CNC(=O)[C@H](CC(C)C)NC(=O)[C@@H](N)CC(C)C)C(=O)NCC(=O)N[C@@H](CCCCN)C(=O)N[C@@H](CCC(=O)O)C(=O)N[C@@H](Cc1ccccc1)C(=O)N[C@@H](CCCCN)C(=O)N[C@@H](CCCNC(=N)N)C(=O)N[C@H](C(=O)N[C@H](C(=O)N[C@@H](CCC(N)=O)C(=O)N[C@@H](CCCNC(=N)N)C(=O)N[C@H](C(=O)N[C@@H](CCCCN)C(=O)N[C@@H](CC(=O)O)C(=O)N[C@@H](Cc1ccccc1)C(=O)N[C@@H](CC(C)C)C(=O)N[C@@H](CCCNC(=N)N)C(=O)N[C@@H](CC(N)=O)C(=O)N[C@@H](CC(C)C)C(=O)N[C@H](C(=O)N1CCC[C@H]1C(=O)N[C@@H](CCCNC(=N)N)C(=O)N[C@H](C(=O)N[C@@H](CCC(=O)O)C(=O)N[C@@H](CO)C(=O)O)[C@@H](C)O)C(C)C)[C@@H](C)CC)C(C)C)[C@@H](C)CC [LL37]
Toxicity in the presence of poly(I:C) ([2]; BEAS2B, WST-1, LL37 3 µM): did not show significant toxicity | Effect on cell viability in the absence of poly(I:C) ([2]; BEAS2B, WST-1, LL37 up to 5 µM, representative of five experiments): no effect on cell viability | Effect on BEAS2B cell viability ([2]; at or less than 3 µM, by itself or in the presence of poly(I:C), WST-1, n = 5): minimal effects | Cytotoxicity judged by morphology of PBMCs ([3]; data not shown): no obvious cytotoxicity

COc1cc2ncnc(Nc3cccc(Cl)c3)c2cc1OC [tyrphostin AG 1478]
Effect on IL6 production induced by poly(I:C) or poly(I:C) in combination with LL37 ([1]; BEAS2B, unpublished observations): had no effect

LLGNFFRKSKQKIGKQFKRIVQRIKNFFRNLVPRTQS [Sc37]
Slope of best fit line of particle lengths and widths [4]: 0.8 ± 0.05 | Effect on IL6 production by the viral RNAs tested [5]: did not increase IL6 production | Fold induction above poly(I:C) induced IL6 production (BEAS2B) [1]: 1.05±0.11 (6) fold | Enhancement of poly(I:C)-induced IL6 levels compared to poly(I:C) alone ([1]; BEAS2B, peptide 2.2 µM, poly(I:C) 0.13 µg/ml, 20 h, LL37 n = 23, Sc37 n = 7): did not enhance IL6 production | Additional increase of reporter levels above that of the Reovirus dsRNAs ([6]; 293T/TLR3, peptide 2 µM, Reovirus dsRNA, LL37 n = 8, Sc37 n = 4): did not affect reporter activity | Fold induction above Reovirus dsRNA (293T/TLR3 reporter) [6]: 1.0±0.03 (9) fold | Increase of IL1α, MCP1 and IP10 levels with poly(I:C) above poly(I:C) or peptide alone ([3]; poly(I:C) 5 µg/ml, 24 h, n = 3): did not significantly increase

NAKTRRHERRRKLAIER [P22N(14-30), arginine-containing peptide]
Fold induction above poly(I:C) induced IL6 production (BEAS2B) ([1]; 5 µM): 1.0±0 (3) fold | Fold induction above poly(I:C) induced IL6 production (BEAS2B) ([1]; listed as P22(14-30), 5 µM): did not enhance TLR3 signaling | Fold induction above Reovirus dsRNA (293T/TLR3 reporter) [6]: 1.3±0.14 (4) fold

RQIKIWFQNRRMKWKK [Penetrin, peptide derived from the protein antennapedia; cell-penetrating peptide]
Fold induction above poly(I:C) induced IL6 production (BEAS2B) [1]: 2.9±1.2 (3) fold | Fold induction above Reovirus dsRNA (293T/TLR3 reporter) [6]: 1.1±0.05 (4) fold

RRRRRRRRR [Arg(9), cell-penetrating peptide of nine arginines]
Effect on LPS-induced IL6 production [7]: no effect on LPS signaling | Fold induction above Reovirus dsRNA (293T/TLR3 reporter) [6]: 1.5±0.17 (4) fold

TRAQRRAAARGGGVVIAC [Peptide 3]
Fold induction above poly(I:C) induced IL6 production (BEAS2B) [1]: 3±0.62 (8) fold | Fold induction above Reovirus dsRNA (293T/TLR3 reporter) [6]: 1 fold

TRAQRRAAARGVQIVYKC [T4, peptide derived from the Brome mosaic virus (BMV) capsid]
Effect on LPS-induced IL6 production [7]: not affected | Fold induction above poly(I:C) induced IL6 production (BEAS2B) [1]: 5.6±1.4 (6) fold | Fold induction above Reovirus dsRNA (293T/TLR3 reporter) [6]: 1 fold

TRAQRRAAARRNRACCPGCCS [T3, peptide derived from the Brome mosaic virus (BMV) capsid]
Effect on LPS-induced IL6 production [7]: not affected | Fold induction above poly(I:C) induced IL6 production (BEAS2B) [1]: 3±0.4 (8) fold | Fold induction above Reovirus dsRNA (293T/TLR3 reporter) [6]: 1.3±0.08 (4) fold

TSAQSSAAASSNSACCPGCCS [T3Ser, variant of the peptide T3 that had the arginines substituted with serines]
Fold induction above poly(I:C) induced IL6 production (BEAS2B) ([1]; 5 µM): 0.8±0.12 (4) fold | Fold induction above poly(I:C) induced IL6 production (BEAS2B) ([1]; listed as T3ser, 5 µM): lost the ability to enhance IL6 production | Fold induction above Reovirus dsRNA (293T/TLR3 reporter) [6]: 1 fold

YGRKKRRQRRR [Tat47-57, Tat peptide that is rich in basic residues; cell-penetrating peptide]
Effect on LPS-induced IL6 production [7]: no effect on LPS signaling | Fold induction above poly(I:C) induced IL6 production (BEAS2B) ([1]; 5 µM): 3.7±0.43 (10) fold | Fold induction above poly(I:C) induced IL6 production (BEAS2B) ([1]; listed as Tat peptide, 5 µM): at least 2.9 fold | Fold induction above Reovirus dsRNA (293T/TLR3 reporter) [6]: 1.3±0.19 (3) fold

mCRAMP
Enhancement of IL6 production in response to poly(I:C) ([1]; BEAS2B, KR18-37 4 µM, mCRAMP 5 µM, poly(I:C) 0.13 µg/ml, 24 h, n = 3): unable to enhance IL6 production

poly(I:C)
Slope of best fit line of particle lengths and widths [4]: 0.53 ± 0.12 | IL6 levels above basal levels ([1]; BEAS2B, poly(I:C) added to medium, n = 12): 15 ± 2.2 fold
